Experimental findings from ChEMBL document CHEMBL1131832, “Synthesis and pharmacological activity of diarylindole derivatives. Cytotoxic agents based on combretastatins” (Bioorg Med Chem Lett, 1999) are described below.

Structures are written as SMILES.

Assay [1] has as its system A549. The assay can be described thus: Antineoplastic activity against A-549 (human lung carcinoma) cell line. Type of assay: functional, cell-based.
Assay [2] concerns SK-MEL-28. The assay can be described thus: Antineoplastic activity against SK-MEL-28 (human melanoma) cell line. It counts as functional, cell-based.
The test system of assay [3] is HT-29. Nature of the assay: Antineoplastic activity against HT-29 (human colon adenocarcinoma) cell line. Type of assay: functional, cell-based.
Assay [4] relates to P388. The assay can be described thus: Antineoplastic activity against P-388 (murine lymphoid neoplasm) cell line. It counts as functional, cell-based. The settings on record: Mus musculus.
The test system of assay [5] is SK-MEL-5. Nature of the assay: Compound was evaluated for cytostatic activity against SK-MEL-5 melanoma cell line. It counts as functional. The settings on record: Homo sapiens.
Assay [6] concerns HCT-116. Nature of the assay: Compound was evaluated for cytostatic activity against […] colon cancer cell line. Type of assay: functional. Particulars: Homo sapiens.
The test system of assay [7] is SF-295. The assay can be described thus: Compound was evaluated for cytostatic activity against SF-295 CNS cancer cell line. Type of assay: functional. Particulars: Homo sapiens.
The subject of assay [8] is HL-60. Nature of the assay: Compound was evaluated for cytostatic activity against the HL-60(TB) leukemia cell line. Type of assay: functional. Particulars: Homo sapiens.
The subject of assay [9] is SF-539. Nature of the assay: Compound was evaluated for cytostatic activity against SF-539 CNS cancer cell line. Type of assay: functional. Particulars: Homo sapiens.
Assay [10] deals with NCI-H522. The assay can be described thus: Compound was evaluated for cytostatic activity against NCI-H522 non-small cell lung cancer cell line. It counts as functional. Particulars: Homo sapiens.
Assay [11] concerns OVCAR-3. Nature of the assay: Compound was evaluated for cytostatic activity against OVCAR-3 ovarian cancer cell line. Type of assay: functional. The settings on record: Homo sapiens.
The subject of assay [12] is SNB-19. The assay can be described thus: Compound was evaluated for cytostatic activity against SNB-19 CNS cancer cell line. Type of assay: functional. Particulars: Homo sapiens.
Assay [13] concerns RPMI-8226. The assay can be described thus: Compound was evaluated for cytostatic activity against the RPMI-8226 leukemia cell line. Type of assay: functional. The settings on record: Homo sapiens.
The subject of assay [14] is COLO 205. Nature of the assay: Compound was evaluated for cytostatic activity against COLO 205 colon cancer cell line. Particulars: Homo sapiens. Type of assay: functional.
[15] abbreviates: read-out: Log LC50 (the source's name) (converted).

As to `COc1cc(CC(O)c2ccc3c(c2)OCO3)cc(OC)c1OC` (stereo not given), the IC50 in assay [1], in assay [2], in [3] and in assay [4] was greater than 100 µM in each case.
`COc1cc(CC(O)c2ccco2)cc(OC)c1OC` (stereo not given): the IC50 in [1] is 36.3 µM; in assay [2] it was 36.3 µM; in assay [3], 36.3 µM; in assay [4] it was 18.2 µM.
For `COc1cc(CC(O)c2ccoc2)cc(OC)c1OC` (stereo not given), the IC50 in [1] was 72.4 µM; in assay [2], 72.4 µM; in [3], 72.4 µM; in assay [4], 36.3 µM.
As for `COc1cc(CCc2ccco2)cc(OC)c1OC`, the IC50 in assay [1], in [2], in assay [3] and in [4] was 19.1 µM each time.
On to `COc1ccc2[nH]c(-c3ccc4c(c3)OCO4)c(-c3cc(OC)c(OC)c(OC)c3)c2c1`, for which the IC50 in assay [1] is 6.31 µM; in assay [2] it was 6.31 µM; in [3], 6.31 µM; in [4], 2.29 µM.
On to `COc1cc(CC(=O)c2ccc3ccccc3c2)cc(OC)c1OC`, for which the IC50 was 15.1 µM in assay [1], 15.1 µM in assay [2], 30.2 µM in assay [3] and 15.1 µM in assay [4].
For `COc1cc(CCc2ccoc2)cc(OC)c1OC`, the IC50 in assay [1], in [2], in [3] and in assay [4] was greater than 100 µM throughout.
`COc1cc(CC(=O)c2ccoc2)cc(OC)c1OC`: the IC50 in assay [1], in [2], in assay [3] and in [4] was 7.24 µM throughout.
As for `COc1cc(CCc2ccc3ccccc3c2)cc(OC)c1OC`, the IC50 in assay [2] was 0.302 µM. This lies in the sub-micromolar range.
`COc1ccc2[nH]c(-c3ccc(C)o3)c(-c3cc(OC)c(OC)c(OC)c3)c2c1`: the IC50 in [1] is 5.13 µM; in [2], 5.13 µM; in assay [3], 6.46 µM; in [4] it was 5.13 µM.
Turning to `COc1ccc2[nH]c(-c3ccco3)c(-c3cc(OC)c(OC)c(OC)c3)c2c1`, the GI50 in assay [5] was 0.245 µM; in assay [6], 0.138 µM; in assay [7] it was 0.138 µM; in assay [8] it was 0.0513 µM; in [9], 0.117 µM; in [10], 0.0759 µM. Further, the GI50 in assay [11] is 0.17 µM; in assay [12] it was 0.0229 µM; in assay [13], 0.0912 µM; in [14], 0.186 µM. The CC50 in assay [5] (setting [15]) is 28.8 µM; in assay [6] (setting [15]), 2.51 µM; in assay [7] (setting [15]) it was 23.4 µM; in assay [8] (setting [15]), greater than 100 µM; in assay [9] (setting [15]), 0.933 µM; in assay [10] (setting [15]) it was 3.39 µM. Also, the CC50 in assay [11] (setting [15]) is 7.24 µM; in assay [12] (setting [15]) it was 0.977 µM; in [13] (setting [15]), 75.9 µM; in [14] (setting [15]), 0.676 µM. In addition, the IC50 was 1.32 µM in [1], 1.32 µM in assay [3] and 0.708 µM in [4].
`COc1cc(CCc2ccc(C)o2)cc(OC)c1OC`: the IC50 in [1], in assay [2], in [3] and in assay [4] was 7.24 µM throughout.
Take `COc1cc(CC(=O)c2ccc(C)o2)cc(OC)c1OC`: the IC50 was 17.4 µM in assay [1], 8.71 µM in assay [2], 17.4 µM in [3] and 8.71 µM in [4].
For `COc1cc(CC(O)c2ccc3ccccc3c2)cc(OC)c1OC` (stereo not given), the IC50 in assay [1], in assay [2], in [3] and in assay [4] was 2.95 µM throughout.
As to `COc1ccc2[nH]c(-c3ccoc3)c(-c3cc(OC)c(OC)c(OC)c3)c2c1`, the IC50 in assay [1], in assay [2], in [3] and in assay [4] was 3.24 µM each time.
In assay [2], `COc1cc(CCc2ccc3c(c2)OCO3)cc(OC)c1OC` gave an IC50 of 6.31 µM. In other words, the single-digit micromolar range.
As to `COc1cc(CC(=O)c2ccco2)cc(OC)c1OC`, the IC50 in [1], in assay [2], in [3] and in assay [4] was greater than 100 µM in each case.
Regarding `COc1ccc2[nH]c(-c3ccc4ccccc4c3)c(-c3cc(OC)c(OC)c(OC)c3)c2c1`, the IC50 was 1.12 µM in assay [1], 1.12 µM in assay [2], 2.24 µM in [3] and 1.12 µM in assay [4].

By IC50 is commonly meant the point on the concentration scale where inhibition reaches its midpoint. The low end stands for higher potency, the high end for lower potency. For orientation: GI50 means the concentration giving 50% growth inhibition.
